Measured values reported in ChEMBL document CHEMBL1125946, “Total synthesis of a homochiral arene-fused prostacyclin analog” (Bioorg Med Chem Lett, 1991).

Species: Homo sapiens
Assay: Concentration required for the inhibition of collagen induced platelet aggregation; inactive
Type: functional

IC50: > 10 µM
Structure (SMILES): O=C(O)COc1ccc2c(c1)CC[C@@H]1[C@@H](C#C[C@@H](O)C3CCCCC3)[C@H](O)C[C@H]21
